US7026527B2, “Plant methionine synthase gene and methods for increasing the methionine content of the seeds of plants” (priority 1995, dated 2006)

Columns and labels:
[1] = system: E. coli strain Gif106M1 transformed with pBT436; format: cell-based; details: M9 media with arginine, isoleucine, ampicillin
From the text: To establish that the cloned lysC gene was functional, pBT436 was transformed into E. coli strain Gif106M1 (E. coli Genetic Stock Center strain CGSC-5074) which has mutations in each of the three E. coli AK genes [Theze et al., J. Bacteriol., (1974), 117, 133-143|. This strain lacks all AK activity and therefore requires diaminopimelate (a precursor to lysine which is also essential for cell wall biosynthesis), threonine and methionine.
M9 media [see Sambrook et al. (1989) Molecular Cloning: A Laboratory Manual, Cold Spring Harbor Laboratory Press| supplemented with the arginine and isoleucine, required for Gif106M1 growth, and ampicillin, to maintain selection for the pBT436 plasmid, was used. […] This property of pBT436-transforned Gif106M1 was used to select for mutations in lysC that encoded lysine-insensitive AKIII.

wild type AKIII [2] = biological target: T1, wild type AKIII (Escherichia coli, UniProt P08660); assay: Lysine inhibition of wild type AKIII aspartokinase activity; format: biochemical, E. coli
T1 construct: made in house; host or cells: E. coli Gif106M1 (lacks all AK activity) transformed with pBT436
Experimental: (§1) Single colonies of Gif106M1 transformed with pBT436 were picked and resuspended in 200 μL of a mixture of 100 μL 1% lysine plus 100 μL of M9 media. The entire cell suspension containing 10^7-10^8 cells was spread on a petri dish containing M9 media supplemented with the arginine, isoleucine, and ampicillin. Sixteen petri dishes were thus prepared. From 1 to 20 colonies appeared on 11 of the 16 petri dishes. One or two (if available) colonies were picked and retested for lysine resistance and from this nine lysine-resistant clones were obtained. Plasmid DNA was prepared from eight of these and re-transformed into Gif106M1 to determine whether the lysine resistance determinant was plasmid-borne. Six of the eight plasmid DNAs yielded lysine-resistant colonies. Three of these six carried lysC genes encoding AKIII that was uninhibited by 15 mM lysine, whereas wild type AKIII is 50% inhibited by 0.3-0.4 mM lysine and >90% inhibited by 1 mM lysine.
(§2) Assay mix (for 12×1.0 mL or 48×0.25 mL assays): • 2.5 mL H2O • 2.0 mL 4M KOH • 2.0 mL 4M NH2OH—HCl • 1.0 mL 1M Tris-HCl pH 8.0 • 0.5 mL 0.2M ATP (121 mg/ml in 0.2M NaOH) • 50 μL 1M MgSO4
(§3) Each 1.5 mL eppendorf assay tube contains:
(§4) Assay tubes are incubated at 30° C. for 30-60 min […];
(§5) Spin for 2 min in eppendorf centrifuge tube. Read OD at […].

wild type AKIII [3] = biological target: T2, wild type AKIII (Escherichia coli, UniProt P08660, G401A); assay: as above; format: biochemical, E. coli; details: read-out: inhibition of AKIII
T2 construct: made in house; host or cells: E. coli Gif106M1 (lacks all AK activity) transformed with pBT436
Experimental: as §1, §2, §3, §4, §5

[4] = biological target: T3, AKIII encoded by mutant lysC genes (lysine-insensitive) (Escherichia coli, UniProt P08660, G401A/T352I); format: biochemical, E. coli; details: 15 mM lysine; three mutant lysC genes (M2, M3, M4)
T3 construct: made in house; host or cells: E. coli Gif106M1 carrying mutated pBT436 plasmids
Experimental: as §1
The sequences of the three mutant lysC genes that encoded lysine-insensitive AK each differed from the wild type sequence by a single nucleotide, resulting in a single amino acid substitution in the protein. […] Thus, either of these single amino acid substitutions is sufficient to render the AKIII enzyme insensitive to lysine inhibition. […]
as §5

AKII-HDHII (AK activity) = biological target: T4, AKII-HDHII (AK activity) (Escherichia coli, UniProt P00562); assay: AK activity of AKII-HDHII extract (clone 5), inhibition by pathway end-products; format: biochemical, E. coli; details: 30 mM end-product; extract from clone 5
T4 construct: The primers also add a Kpn I site immediately following the translation stop codon; made in house; host or cells: E. coli BL21(DE3), pBT430-derived T7 vector; supernatant of sonicated cells (clone 5, plasmid pBT718)
Experimental: These four were then assayed for AK activity. AK activity was assayed as shown below:
as §2
pH of assay mix should be 7-8
as §3, §4, §5
Two extracts also had high levels of AK enzyme activity. These two extracts were then tested for inhibition of AK or HDH activity by the pathway end-products, lys, thr and met.

[5] = biological target: T5, AKII-HDHII (HDH activity) (Escherichia coli, UniProt P00562); assay: HDH activity of AKII-HDHII extract (clone 5), inhibition by pathway end-products; format: biochemical, E. coli; details: 30 mM end-product; extract from clone 5
T5 construct: The primers also add a Kpn I site immediately following the translation stop codon; made in house; host or cells: E. coli BL21(DE3), pBT430-derived T7 vector; supernatant of sonicated cells (clone 5, plasmid pBT718)
T5 sequence (P00562 other isoform, or with tags, fused parts or gaps): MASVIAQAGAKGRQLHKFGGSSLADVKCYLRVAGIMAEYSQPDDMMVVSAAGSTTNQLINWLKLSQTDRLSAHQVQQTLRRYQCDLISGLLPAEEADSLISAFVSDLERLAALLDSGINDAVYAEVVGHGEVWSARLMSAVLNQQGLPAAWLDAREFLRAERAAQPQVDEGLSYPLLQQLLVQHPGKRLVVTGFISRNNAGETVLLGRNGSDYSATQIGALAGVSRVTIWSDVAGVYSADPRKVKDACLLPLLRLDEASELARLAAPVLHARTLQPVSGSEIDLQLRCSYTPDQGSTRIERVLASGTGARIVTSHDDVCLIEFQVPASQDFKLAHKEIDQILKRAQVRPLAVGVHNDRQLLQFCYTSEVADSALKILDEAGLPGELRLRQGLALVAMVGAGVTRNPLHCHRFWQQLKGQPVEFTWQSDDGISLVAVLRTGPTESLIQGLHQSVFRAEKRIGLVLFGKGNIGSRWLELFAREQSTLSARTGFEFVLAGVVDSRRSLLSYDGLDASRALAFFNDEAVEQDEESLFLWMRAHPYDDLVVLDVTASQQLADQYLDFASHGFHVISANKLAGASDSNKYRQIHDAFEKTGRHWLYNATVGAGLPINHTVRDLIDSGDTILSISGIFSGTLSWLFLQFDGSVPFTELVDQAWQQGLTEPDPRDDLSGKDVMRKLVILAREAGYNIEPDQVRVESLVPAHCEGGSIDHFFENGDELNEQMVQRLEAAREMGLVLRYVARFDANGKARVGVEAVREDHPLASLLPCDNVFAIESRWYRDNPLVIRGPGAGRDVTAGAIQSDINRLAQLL
Experimental: The cells were collected by centririgation and resuspended in 1/25th the original culture volume in 50 mM NaCl; 50 mM Tris-Cl, pH 7.5; 1 mM EDTA, and frozen at −20° C., thawed at 37° C. and sonicated, in an ice-water bath, to lyse the cells. The lysate was centrifuged at 4° C. for 5 min at 12,000 rpm. The supernatant was removed and the pellet was resuspended in the above buffer. The supernatant fractions were assayed for HDH enzyme activities to identify clones expressing functional proteins. HDH activity was assayed as shown below: HDH ASSAY
Make Mixture of above reagents with amounts multiplied by number of assays. Use 0.9 mL of mix for 1 mL assay; 180 μL of mix for 0.2 mL assay in microtiter dish
to ½ the assay mix; remaining ½ lacks ASA to serve as blank
Add enzyme extract last to start reaction. Incubate at ˜30° C.; monitor NADPH oxidation at 340 nM. 1 unit oxidizes 1 μmol NADPH/min at 30° C. in the 1 mL reaction.

T4 sequence (P00562 other isoform, or with tags, fused parts or gaps): as above
T3 sequence (P08660 2-449 T352I/G401A): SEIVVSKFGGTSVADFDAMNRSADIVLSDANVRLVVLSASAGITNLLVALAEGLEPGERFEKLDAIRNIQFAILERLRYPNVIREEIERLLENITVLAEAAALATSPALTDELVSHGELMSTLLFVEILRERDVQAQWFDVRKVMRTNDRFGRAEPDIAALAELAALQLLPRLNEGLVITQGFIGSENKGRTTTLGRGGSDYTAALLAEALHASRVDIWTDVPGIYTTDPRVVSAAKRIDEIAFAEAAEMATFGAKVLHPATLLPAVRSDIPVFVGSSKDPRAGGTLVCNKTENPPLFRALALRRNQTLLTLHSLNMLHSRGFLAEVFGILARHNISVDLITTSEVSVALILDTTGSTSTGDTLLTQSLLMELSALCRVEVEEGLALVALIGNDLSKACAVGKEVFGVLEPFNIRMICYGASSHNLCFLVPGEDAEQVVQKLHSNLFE
T2 sequence (P08660 2-449 G401A): as the sequence (P08660 2-449 T352I/G401A) above, with I351T counted along it
T1 sequence (P08660 2-449 G401A): as the sequence (P08660 2-449 T352I/G401A) above, with I351T counted along it

SMILES	concentration in growth medium that inhibits growth [1]	IC50 (wild type AKIII [2]) [µM]	inhibition at 1000 µM (wild type AKIII [3]) [%]	inhibition of mutant AKIII [4]	inhibition of AK activity (AKII-HDHII (AK activity))	inhibition of HDH activity [5]
NC(CCCC(N)C(=O)O)C(=O)O (centres unmarked) [diaminopimelate]	approximately 0.2 mM	–	–	–	–	–
NCCCC[C@H](N)C(=O)O [lysine]	approximately 0.2 mM	300 to 400	> 90	uninhibited	Neither the AK nor the HDH activity of the extract from clone 5 was inhibited	Neither the AK nor the HDH activity of the extract from clone 5 was inhibited
CSCC[C@H](N)C(=O)O [methionine]	–	–	–	–	Neither the AK nor the HDH activity of the extract from clone 5 was inhibited	Neither the AK nor the HDH activity of the extract from clone 5 was inhibited
C[C@@H](O)[C@H](N)C(=O)O [threonine]	–	–	–	–	Neither the AK nor the HDH activity of the extract from clone 5 was inhibited	Neither the AK nor the HDH activity of the extract from clone 5 was inhibited
